Experimental findings from PubChem BioAssay AID248 (DTP/NCI, 2004) are described below.

Several values for one entry are separate records, joined by “and”; a condition that tells them apart may be missing. Identical values can stand only once. Toxic doses and inconclusive results are not listed.

This assay concerns L1210 leukemia ip in BDF1 mice, survival T/C. Kind of assay: NCI In Vivo Anticancer Drug Screen. Data for tumor model L1210 Leukemia (intraperitoneal) in B6D2F1 (BDF1) mice. To be noted: endpoint: mean survival time, higher = longer survival. In short, it runs like this:
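Read-out is survival time, reported as the treated-group measurement over the vehicle-control measurement.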

Where [1] appears, read: dose: 100.0 mg/kg/injection, schedule: Q01DX009 (ip), vehicle: Klucel (hydroxypropylcellulose) (HPC).
Where [2] appears, read: dose: 100.0 mg/kg/injection, schedule: Q04DX003 (ip), vehicle: Klucel (hydroxypropylcellulose) (HPC).
Setting [3] is: dose: 200.0 mg/kg/injection, schedule: Q01DX009 (ip), vehicle: Klucel (hydroxypropylcellulose) (HPC).
Setting [4] is: dose: 200.0 mg/kg/injection, schedule: Q04DX003 (ip), vehicle: Klucel (hydroxypropylcellulose) (HPC).
Setting [5] is: dose: 400.0 mg/kg/injection, schedule: Q01DX009 (ip), vehicle: Klucel (hydroxypropylcellulose) (HPC).
[6] abbreviates: dose: 400.0 mg/kg/injection, schedule: Q04DX003 (ip), vehicle: Klucel (hydroxypropylcellulose) (HPC).
The mark [7] stands for this setting: dose: 100.0 mg/kg/injection, schedule: Q01DX001 (ip), vehicle: carboxymethylcellulose (CMC).
Setting [8] is: dose: 200.0 mg/kg/injection, schedule: Q01DX001 (ip), vehicle: carboxymethylcellulose (CMC).
[9] abbreviates: dose: 400.0 mg/kg/injection, schedule: Q01DX001 (ip), vehicle: carboxymethylcellulose (CMC).
Where [10] appears, read: dose: 100.0 mg/kg/injection, schedule: Q01DX001 (ip), vehicle: saline.
The mark [11] stands for this setting: dose: 200.0 mg/kg/injection, schedule: Q01DX001 (ip), vehicle: saline.
The mark [12] stands for this setting: dose: 400.0 mg/kg/injection, schedule: Q01DX001 (ip), vehicle: saline.
Setting [13] is: dose: 100.0 mg/kg/injection, schedule: Q01DX009 (ip), vehicle: saline.
The mark [14] stands for this setting: dose: 200.0 mg/kg/injection, schedule: Q01DX009 (ip), vehicle: saline.
[15] abbreviates: dose: 100.0 mg/kg/injection, schedule: Q04DX002 (ip), vehicle: Klucel (hydroxypropylcellulose) (HPC).
The mark [16] stands for this setting: dose: 200.0 mg/kg/injection, schedule: Q04DX002 (ip), vehicle: Klucel (hydroxypropylcellulose) (HPC).
Where [17] appears, read: dose: 100.0 mg/kg/injection, schedule: Q04DX003 (ip), vehicle: saline with Tween-80.
[18] abbreviates: dose: 200.0 mg/kg/injection, schedule: Q04DX003 (ip), vehicle: saline with Tween-80.
Where [19] appears, read: dose: 400.0 mg/kg/injection, schedule: Q04DX003 (ip), vehicle: saline with Tween-80.

As to `Oc1ccc(C2CCc3ccccc32)cc1` (stereo not given), the T/C is 100 % of control under setting [1]; 95 % of control under setting [2]; 104 % of control under setting [3]; 100 % of control under setting [4]; 95 % of control under setting [5]; 93 % of control under setting [6].

Turning to `COc1ccc(Cl)cc1NC(=O)Nc1nccs1`, the T/C is 98 % of control under setting [1]; 101 % of control under setting [2]; 92 % of control under setting [3]; 97 % of control under setting [4]; 95 % of control under setting [6].

As for `O=C1Nc2ccccc2C1=Nc1ccc2[nH]c3ccccc3c2c1`, the T/C by setting is: under setting [7], 91 % of control; under setting [8], 94 % of control; under setting [9], 91 % of control.

With `S=c1nc[nH]c2c1ncn2CN1CCOCC1`, the T/C (dose: 30.0 mg/kg/injection, schedule: Q01DX015 (ip), vehicle: saline) was 119 % of control; the T/C (dose: 42.0 mg/kg/injection, schedule: Q01DX009 (ip), vehicle: carboxymethylcellulose (CMC)) is 118 % of control; the T/C (dose: 80.0 mg/kg/injection, schedule: Q01DX015 (ip), vehicle: saline) was 153 % of control; the T/C under setting [7] is 112 % of control; the T/C under setting [10] was 110 % of control; the T/C (dose: 120.0 mg/kg/injection, schedule: Q01DX009 (ip), vehicle: carboxymethylcellulose (CMC)) is 168 % of control. The T/C reads like this: (dose: 135.0 mg/kg/injection, schedule: Q01DX015 (ip), vehicle: saline) 152 % of control; (dose: 177.0 mg/kg/injection, schedule: Q01DX001 (ip), vehicle: saline) 152 % of control; under setting [11], 122 % of control; (dose: 200.0 mg/kg/injection, schedule: Q01DX009 (ip), vehicle: carboxymethylcellulose (CMC)) 91 % of control; (dose: 266.0 mg/kg/injection, schedule: Q01DX001 (ip), vehicle: saline) 163 % of control; under setting [9], 164 % of control and 166 % of control. Further, the T/C runs as follows: under setting [12], 152 % of control; (dose: 600.0 mg/kg/injection, schedule: Q01DX001 (ip), vehicle: saline) 152 % of control.

As for `CCNCCC#N`, the T/C reads like this: under setting [13], 111 % of control; under setting [2], 108 % of control; under setting [14], 107 % of control; under setting [4], 107 % of control; under setting [6], 111 % of control.

Take `O/N=C/C=N/O.O/N=C/C=N/O.[Cl][Rh][Cl]`: the T/C reads like this: (dose: 50.0 mg/kg/injection, schedule: Q01DX009 (ip), vehicle: saline) 107 % of control; (dose: 50.0 mg/kg/injection, schedule: Q04DX003 (ip), vehicle: saline) 100 % of control; under setting [13], 101 % of control; (dose: 100.0 mg/kg/injection, schedule: Q04DX003 (ip), vehicle: saline) 104 % of control; under setting [14], 95 % of control; (dose: 200.0 mg/kg/injection, schedule: Q04DX003 (ip), vehicle: saline) 102 % of control. Further, the T/C was 94 % of control (dose: 400.0 mg/kg/injection, schedule: Q01DX009 (ip), vehicle: saline) and 98 % of control (dose: 400.0 mg/kg/injection, schedule: Q04DX003 (ip), vehicle: saline).

As for `CS(=O)(=O)OCCN(CCOS(C)(=O)=O)c1ccc(C=Nc2ccc(C(=O)O)cc2)c(Cl)c1`, the T/C is 120 % of control under setting [2], 105 % of control under setting [4] and 86 % of control under setting [6].

Regarding `Cc1ccc2c(c1)[n+]([O-])c(N)c(C#N)[n+]2[O-]`, the T/C is, setting by setting: under setting [15], 102 % of control; under setting [16], 98 % of control.

As for `CCOC(=O)C(C#N)(C1C=CCC1)C1C=CCC1` (stereo not given), the T/C runs as follows: under setting [17], 100 % of control; under setting [18], 100 % of control; under setting [19], 100 % of control.

Turning to `Cc1onc(-c2ccccc2Cl)c1C(=O)NCC(=O)O`, the T/C is, setting by setting: (dose: 100.0 mg/kg/injection, schedule: Q04DX002 (ip), vehicle: saline with Tween-80) 104 % of control; (dose: 200.0 mg/kg/injection, schedule: Q04DX002 (ip), vehicle: saline with Tween-80) 100 % of control; (dose: 400.0 mg/kg/injection, schedule: Q04DX002 (ip), vehicle: saline with Tween-80) 100 % of control.

As to `O=C1C(CCSc2ccccc2)C(=O)N(c2ccccc2)C1c1ccccc1` (stereo not given), the T/C is 93 % of control under setting [1], 94 % of control under setting [3] and 95 % of control under setting [5].

Turning to `CN(C)C(Cc1ccccc1)(C(=O)O)c1ccccc1` (stereo not given), the T/C is, setting by setting: under setting [10], 96 % of control; under setting [11], 91 % of control; under setting [12], 88 % of control.

For `NCCc1ccc(S(=O)(=O)O)cc1[N+](=O)[O-]`, the T/C reads like this: under setting [1], 96 % of control; under setting [2], 98 % of control; under setting [3], 89 % of control; under setting [4], 94 % of control; under setting [6], 98 % of control.

With `Cc1ccc2[nH]c3cc4ccncc4cc3c2c1`, the T/C was 89 % of control (dose: 100.0 mg/kg/injection, schedule: Q01DX001 (ip), vehicle: Klucel (hydroxypropylcellulose) (HPC)); 94 % of control (dose: 200.0 mg/kg/injection, schedule: Q01DX001 (ip), vehicle: Klucel (hydroxypropylcellulose) (HPC)); 93 % of control (dose: 400.0 mg/kg/injection, schedule: Q01DX001 (ip), vehicle: Klucel (hydroxypropylcellulose) (HPC)).

Consider `[O-][n+]1ccc(N2CCOCC2)cc1`, for which the T/C under setting [10] is 100 % of control.

Take `Cc1cc2nncn2c2ccccc12`: the T/C by setting is: (dose: 50.0 mg/kg/injection, schedule: Q01DX001 (ip), vehicle: saline) 103 % of control; under setting [10], 101 % of control; under setting [11], 101 % of control.

On to `NC(=O)C(Cl)Cl`, for which the T/C is, setting by setting: under setting [17], 113 % of control; under setting [18], 103 % of control; under setting [19], 94 % of control.

Take `Cc1cnc(NS(=O)(=O)c2ccc(N)cc2)nc1-c1ccccc1O`: the T/C under setting [15] was 98 % of control; the T/C under setting [16] is 98 % of control; the T/C (dose: 400.0 mg/kg/injection, schedule: Q04DX002 (ip), vehicle: Klucel (hydroxypropylcellulose) (HPC)) was 91 % of control.

Regarding `CC12CCC(C1)C(C)(C)C2OC(=O)c1ccccc1C(=O)O` (stereo not given), the T/C is 103 % of control (dose: 50.0 mg/kg/injection, schedule: Q01DX001 (ip), vehicle: carboxymethylcellulose (CMC)); 113 % of control under setting [7]; 102 % of control under setting [8]; 103 % of control under setting [9].
